Patent US4163799A, “Psychostimulant compounds” (Union Chimique Continentale U.C.C., priority 1975, dated 1979)
Where a name gives a salt, the structure may show the parent alone.

Tests used:
[1] = Observation of animals, rat; format: in vivo, rat (male, Wistar AF)
Experimental: (§1) All the experiments described below were carried out on male rats weighing between 170 and 220 g (Wistar AF strain) and male mice weighing between 18 and 23 g (Swiss NMRI strain), unless indicated to the contrary. All the experiments were conducted in a constant-temperature laboratory (22±1° C.). […] Unless indicated to the contrary 10 animals per batch were always used.

[2] = Motor activity in the mouse (photoelectric cell actimeter); format: in vivo, mouse (male, Swiss NMRI)
Experimental: as §1
The motor activity was determined with the aid of photoelectric cell actimeters (Boissier and Simon, Arch. int. Pharmacodyn. 1965, 158, 212-221). Twelve animals per batch were always used as a minimum.

[3] = Motor activity in the rat (actimeter); format: in vivo, rat (male, 90-110 g)
Experimental: as §1
The motor activity was determined on male rats weighing between 90 and 110 g with the aid of the actimeter, the same instrument cited with regard to motor activity in the mouse.
The NaAHDH doses were given immediately before the actimeter was switched on.

[4] = Hot plate test with the mouse; format: in vivo, mouse (male, Swiss NMRI)
Experimental: as §1
This test was used to measure the reaction time of the animals to a painful stimulus. Ten animals were used per point. Fifteen minutes after oral administration of NaAHDH (32 mg/kg) the reaction time (licking of front paws) of the mice exposed to the hot plate was 5.8 seconds while that of the controls was 7.3 seconds (significant difference at the 0.05 threshold).

[5] = Avoidance conditioning, two-compartment shuttle-box; format: in vivo, rat (male, Wistar AF); details: 16 and 64 mg/kg orally, previously trained rats
Experimental: as §1
This avoidance conditioning in the rat placed in a two-compartment shuttle-box described by Boissier and Simon (Therapie 1968, 23, 1267-1276) was studied.

[6] = Conditioned-inhibition test (four-plate test); format: in vivo, mouse (male, Swiss NMRI); details: 4, 8, 16, 32 and 64 mg/kg
Experimental: as §1
A simple conditioned-inhibition test was used, namely the four-plate test (Neuropharmacology, Aron et al, 1971, 10, 459-470).

[7] = Modification of hypnotic effects (pentobarbital), mouse; format: in vivo, mouse (male, Swiss NMRI); details: 16, 32, 64 mg/kg orally, with or 60 minutes before pentobarbital
Experimental: as §1

[8] = Modification of hypnotic effects (pentobarbital), rat; format: in vivo, rat (male, Wistar AF); details: 16, 32, 64 mg/kg orally, with or 60 minutes before pentobarbital
Experimental: as §1

[9] = Antireserpine activity test, rat; format: in vivo, rat (male, Wistar AF); details: 8, 16, 32 mg/kg orally, reserpine 2.5 mg/kg IP 4 hours before
Experimental: as §1

[10] = Antireserpine activity test, mouse; format: in vivo, mouse (male, Swiss NMRI); details: 8, 16, 32 mg/kg orally, reserpine 2.5 mg/kg IP 4 hours before
Experimental: as §1

[11] = Anticataleptic activity test (prochlorperazine); format: in vivo, rat (male, Wistar AF); details: 8 or 32 mg/kg ip or orally; prochlorperazine 8 mg/kg ip; homolateral paws, buddha, rocking plate tests
Experimental: as §1

[12] = Stereotypy test with amphetamine; format: in vivo, rat (male, Wistar AF); details: 32 or 64 mg/kg orally 60 minutes before amphetamine 2 mg/kg IP
Experimental: as §1

[13] = test system: monoaminoxidase; assay: Inhibitory effect of monoaminoxidase (tryptamine test); format: in vivo, rat (male, Wistar AF); details: 16 and 64 mg/kg orally; tryptamine 3 mg/kg IV
Experimental: as §1

[14] = Interaction with convulsants: electric shock; format: in vivo, mouse (male, Swiss NMRI); details: 4, 16, 64 mg/kg orally 60 minutes before electric shock
Experimental: as §1

[15] = Interaction with convulsants: cardiazol; format: in vivo; details: 64 mg/kg orally 30 minutes before cardiazol 160 mg/kg SC
Experimental: as §1

[16] = Overall activity and wakefulness profile (conclusion of the study); format: in vivo, rat and mouse
[17] = Antihypnotic effect / pentobarbital antagonism (conclusion); format: in vivo
[18] = Potentialization of apomorphine; format: in vivo; details: compared with caffeine; no method described
[19] = doses less than toxic, from 4 mg/kg orally or ip
[20] = 64 mg/kg IP, ** significant at 0.005

Compound: CC(O)CC(c1ccccc1)C(C(=O)O)c1ccccc1 (stereo not shown) [NaAHDH, Sodium Salt of 5-Hydroxy-2,3-Diphenyl-Hexanoic Acid]
- sexual behavior [1]: increase of sexual behavior
- excitation, reactivity to touch and sound stimuli ([1]; doses less than toxic, beginning with 4 mg/kg orally or ip): slight excitation was observed with enhanced reactivity to touch and sound stimuli
- diameter of the pupil [1, 19]: no change was observed in the diameter of the pupil
- hyperthermia [1, 19]: slight hyperthermia
- motor coordination, abnormal or stereotyped movements [1, 19]: not accompanied by lack of motor coordination or abnormal or stereotyped movements
- hyperthermia ([1]; doses very close to the lethal doses): about 2 °C
- toxic signs ([1]; only at doses very close to the lethal doses): trembling, hyperreactivity to very intense stimuli, interaggressivity, and convulsive phenomena extending to the rear paws
- number of beams interrupted, 30 + 5 min ([2]; 16 mg/kg IP): 44
- number of beams interrupted, 30 + 10 min ([2]; 16 mg/kg IP): 90
- number of beams interrupted, 30 + 15 min ([2]; 16 mg/kg IP): 133
- number of beams interrupted, 30 + 20 min ([2]; 16 mg/kg IP): 163
- number of beams interrupted, 30 + 25 min ([2]; 16 mg/kg IP): 195
- number of beams interrupted, 30 + 30 min ([2]; 16 mg/kg IP, * significant at 0.05): 214 ± 28
- number of beams interrupted, 30 min ([2]; 16 mg/kg IP): 376 ± 31
- number of beams interrupted, 30 + 5 min ([2]; 32 mg/kg IP): 65
- number of beams interrupted, 30 + 10 min ([2]; 32 mg/kg IP): 118
- number of beams interrupted, 30 + 15 min ([2]; 32 mg/kg IP): 183
- number of beams interrupted, 30 + 20 min ([2]; 32 mg/kg IP): 242
- number of beams interrupted, 30 + 25 min ([2]; 32 mg/kg IP): 285
- number of beams interrupted, 30 + 30 min ([2]; 32 mg/kg IP, test t 2,395): 325 ± 26
- number of beams interrupted, 30 min ([2]; 32 mg/kg IP): 450 ± 39
- number of beams interrupted, 30 + 5 min ([2]; 64 mg/kg IP): 90
- number of beams interrupted, 30 + 10 min ([2]; 64 mg/kg IP): 195
- number of beams interrupted, 30 + 15 min ([2]; 64 mg/kg IP): 297
- number of beams interrupted, 30 + 20 min ([2]; 64 mg/kg IP): 396
- number of beams interrupted, 30 + 25 min ([2]; 64 mg/kg IP): 429
- number of beams interrupted, 30 + 30 min [2, 20]: 558 ± 56
- number of beams interrupted, 30 min [2, 20]: 580 ± 47
- motor activity ([2]; 32 and 64 mg/kg ip, significant for the first 30 minutes, regular and constant up to 60th minute): increase in motor activity
- number of beams interrupted, 30 + 5 min ([3]; 16 mg/kg ip): 39
- number of beams interrupted, 30 + 10 min ([3]; 16 mg/kg ip): 67
- number of beams interrupted, 30 + 15 min ([3]; 16 mg/kg ip): 104
- number of beams interrupted, 30 + 20 min ([3]; 16 mg/kg ip): 133
- number of beams interrupted, 30 + 25 min ([3]; 16 mg/kg ip): 156
- number of beams interrupted, 30 + 30 min ([3]; 16 mg/kg ip): 182 ± 39
- number of beams interrupted, 30 min ([3]; 16 mg/kg ip): 461 ± 32
- number of beams interrupted, 30 + 5 min ([3]; 32 mg/kg ip): 88
- number of beams interrupted, 30 + 10 min ([3]; 32 mg/kg ip): 191
- number of beams interrupted, 30 + 15 min ([3]; 32 mg/kg ip): 274
- number of beams interrupted, 30 + 20 min ([3]; 32 mg/kg ip): 372
- number of beams interrupted, 30 + 25 min ([3]; 32 mg/kg ip): 452
- number of beams interrupted, 30 + 30 min ([3]; 32 mg/kg ip): 531 ± 84
- number of beams interrupted, 30 min ([3]; 32 mg/kg ip): 631 ± 49
- number of beams interrupted, 30 + 5 min ([3]; 32 mg/kg vo (orally)): 31
- number of beams interrupted, 30 + 10 min ([3]; 32 mg/kg vo (orally)): 69
- number of beams interrupted, 30 + 15 min ([3]; 32 mg/kg vo (orally)): 100
- number of beams interrupted, 30 + 20 min ([3]; 32 mg/kg vo (orally)): 118
- number of beams interrupted, 30 + 25 min ([3]; 32 mg/kg vo (orally)): 131
- number of beams interrupted, 30 + 30 min ([3]; 32 mg/kg vo (orally)): 164 ± 58
- number of beams interrupted, 30 min ([3]; 32 mg/kg vo (orally)): 433 ± 43
- number of beams interrupted, 30 + 5 min ([3]; 64 mg/kg vo (orally)): 58
- number of beams interrupted, 30 + 10 min ([3]; 64 mg/kg vo (orally)): 124
- number of beams interrupted, 30 + 15 min ([3]; 64 mg/kg vo (orally)): 197
- number of beams interrupted, 30 + 20 min ([3]; 64 mg/kg vo (orally)): 265
- number of beams interrupted, 30 + 25 min ([3]; 64 mg/kg vo (orally)): 325
- number of beams interrupted, 30 + 30 min ([3]; 64 mg/kg vo (orally)): 396 ± 62
- number of beams interrupted, 30 min ([3]; 64 mg/kg vo (orally)): 517 ± 25
- motor activity ([3]; 16 and 32 mg/kg intraperitoneally): increase in motor activity
- motor activity ([3]; 32 and 64 mg/kg orally): increase in motor activity
- effects of an analgesic dose of morphine on hot plate test ([4]; 32 mg/kg, with morphine): did not increase or decrease the effects of an analgesic dose of morphine
- reaction time (licking of front paws) ([4]; 15 min after 32 mg/kg orally, controls 7.3 seconds, significant at 0.05): 5.8 s
- change in avoidance conditioning [5]: no change in the conditioning
- animals' performance in four-plate test [6]: slight in increase in the animals' performance
- modification of conditioned inhibition [6]: no modification of conditioned inhibition
- time taken to fall asleep or length of sleep [7]: no modification to the time taken to fall asleep or the length of sleep
- time taken to fall asleep or length of sleep [8]: no modification to the time taken to fall asleep or the length of sleep
- modification of hyperthermia or drooping eyelid induced by reserpine [9]: no modification of hyperthermia or drooping eyelid induced by reserpine
- modification of hyperthermia or drooping eyelid induced by reserpine [10]: no modification of hyperthermia or drooping eyelid induced by reserpine
- modification of cataleptic condition [11]: no modification to the cataleptic condition
- modification of amphetamine stereotyped movements [12]: no modification in stereotyped movements
- potentialization of effects of infra-convulsant dose of tryptamine [13]: no potentialization of the effects of an infra-convulsant dose of tryptamine
- duration or appearance of the convulsions [14]: modified neither the duration nor appearance of the convulsions
- motility after the convulsion [14]: no increase in motility after the convulsion
- latency of convulsions [15]: no decrease in the latency of convulsions
- signs of sympathetic excitation ([16]; by contrast to nooanaleptics): no signs of sympathetic excitation
- persistence of increase in activity and wakefulness ([16]; orally, after administration): about 2 hours
- pentobarbital antagonism ([17]; at clearly stimulating doses): no pentobarbital antagonism
- antihypnotic effect ([17]; compared with caffeine): no antihypnotic effect
- potentialization of apomorphine [18]: does not potentialize apomorphine
